In brackets after ≈: the same amount, converted by molar mass. Read-outs that look alike come from different tables or passages of the source.
Assays:
[1] = system: Acinetobacter baumanii [DSM 30008]; test: Serial dilution assay (MIC); format: cell-based; details: Acinetobacter baumannii, DSM30008
Protocol: (§1) All isolated compounds were assessed for their antimicrobial activity using a serial dilution assay over a concentration range from 67 to 0.5 µg/mL following the previously described protocols. In brief, the antimicrobial activity of all isolated metabolites was assessed by determining their minimum inhibitory concentration (MIC) against a range of different pathogens, including five fungal species: Candida albicans [DSM 1665], Mucor hiemalis [DSM 2656], Schizosaccharomyces pombe [DSM 70572], Rhodotorula glutinis [DSM 10134], and Wickerhamomyces anomalus [DSM 6766], as well as various Gram-positive: Staphylococcus aureus [DSM 346], Bacillus subtilis [DSM 10], Mycolicibacterium smegmatis [ATCC 700084], and Gram-negative bacteria: Acinetobacter baumanii [DSM 30008], Escherichia coli [DSM 1116], Chromobacterium violaceum [DSM 30191], and Pseudomonas aeruginosa [PA14]. In our experiments, gentamicin served as the positive control against most bacteria, while nystatin acted as the positive control against all fungi. For specific microorganisms, namely A. baumannii, B. subtilis, and M. smegmatis, ciprofloxacin, oxytetracycline, and kanamycin were used as positive controls, respectively.

[2] = system: mouse fibroblasts (L-929); test: Cytotoxicity assay, L929; format: cell-based; details: L929 (fibroblast), 5 days of incubation
Protocol: (§2) The cytotoxicity of isolated compounds was determined as previously described over a concentration range between […] against two mammalian cell lines: mouse fibroblasts (L-929) and human endocervical adenocarcinoma (KB-3.1). […] Following 5 days of incubation, we determined the minimum concentration of the tested compounds required to achieve 50% growth inhibition, expressed as IC50 values.

[3] = system: S. aureus (DSM 1104) biofilm formation; test: Biofilm inhibition assay (Crystal Violet staining); format: cell-based, Staphylococcus aureus; details: for concentration below which biofilm inhibitory activity is lost: S. aureus biofilm, tested 125–7.8 µg/mL; for Biofilm inhibition (% ± SD): S. aureus (DSM 1104)
Protocol: The compounds were evaluated for their ability to inhibit S. aureus (DSM 1104) biofilm formation, following the established procedure. Briefly, serially diluted compounds (125–7.8 µg/mL) were co-incubated with S. aureus in 96-well plates in CASO medium supplemented with 4% of glucose (see Supplementary Materials). Biofilm inhibition was assessed by using Crystal Violet staining after […], with microporenic acid A serving as a positive control and methanol as solvent control.
Biofilm inhibition assays were condu cted acco rding to th e methodolo g y previousl y described (Soliga et al., 2021), targeting the inhibition of biofilm formation in Staphylococcus aureus […]
S. aureus were cultured i n LB and CASO medium at 37 °C for 18 h, respect ivel y, in a shaker at 120 rpm after being thawed from a -20 °C stock solution. The culture's optical densit y at 600 nm (OD600) was measured and adjusted to a 0.1 McFarland standard in M63 minimal medium supplemented with necessar y nutrients and CASO medi um with 4% glucose for S. aureus, respectively. Microtiter plates were loaded with 150 µL of the bacterial suspension containing s eriall y diluted test compounds (7.8 -125 µg/m L) and incubated for 24 h at 37 °C. The evaluation of biofilm inhibition was performed by staining the biofilm with 0.1% cr ystal violet (CV). After staining, the plates were washed, and the biofilm dissolved in 95% ethanol. The absorbance of the dissolved biofilm was measured at 530 nm using a plat e reader. Negative control involved methanol (2.5%) while microporenic acid A at a concentration range of 7.8 to 125 µg/mL were used as the positive control for S. aureus (Chepkirui et al., 2018). All experiments were performed three times, and the standard deviation (SD) was maintained at or below 15% for S. aureus .
Differences between sam ples and the control grou p were determined b y a t wo-tailed Student’s t-test. Statistical significan ce was defined as p < 0.01. Anal ysis was carri ed out using GraphPad Prism 9® (GraphPad Software, San Diego, CA, USA). […]

[4] = system: Escherichia coli [DSM 1116]; test: Serial dilution assay (MIC); format: cell-based
Protocol: as §1

[5] = system: Mucor hiemalis [DSM 2656]; test: Serial dilution assay (MIC); format: cell-based
Protocol: as §1

[6] = system: Staphylococcus aureus [DSM 346]; test: Serial dilution assay (MIC); format: cell-based
Protocol: as §1

[7] = system: Pseudomonas aeruginosa [PA14]; test: Serial dilution assay (MIC); format: cell-based
Protocol: as §1

[8] = system: Mycolicibacterium smegmatis [ATCC 700084]; test: Serial dilution assay (MIC); format: cell-based; details: for MIC: Mycolicibacterium smegmatis, ATCC700084
Protocol: as §1

[9] = system: Bacillus subtilis [DSM 10]; test: Serial dilution assay (MIC); format: cell-based
Protocol: as §1

[10] = system: Candida albicans [DSM 1665]; test: Serial dilution assay (MIC); format: cell-based
Protocol: as §1

[11] = system: human endocervical adenocarcinoma (KB-3.1); test: Cytotoxicity assay, KB3.1; format: cell-based; details: 5 days of incubation
Protocol: as §2

[12] = system: Chromobacterium violaceum [DSM 30191]; test: Serial dilution assay (MIC); format: cell-based
Protocol: as §1

[13] = system: lung cancer (A-549) cell line; test: Cytotoxicity assay, A549; format: cell-based; details: Homo sapiens
[14] = system: breast cancer (MCF-7) cell line; test: Cytotoxicity assay, MCF-7; format: cell-based; details: Homo sapiens, MCF7, 120 h
[15] = system: Wickerhamomyces anomalus [DSM 6766]; test: Serial dilution assay (MIC); format: cell-based
Protocol: as §1

[16] = system: Schizosaccharomyces pombe [DSM 70572]; test: Serial dilution assay (MIC); format: cell-based
Protocol: as §1

[17] = system: Rhodotorula glutinis [DSM 10134]; test: Serial dilution assay (MIC); format: cell-based
Protocol: as §1

[18] = Staphylococcus aureus, DSM1104, read-out: Biofilm inhibition (% ± SD), S. aureus (DSM 1104), 62.5 µg/ml
[19] = Staphylococcus aureus, DSM1104, read-out: Biofilm inhibition (% ± SD), S. aureus (DSM 1104), 125 µg/ml
[20] = Homo sapiens, KB 3-1, 120 h, KB3.1 (endocervical adenocarcinoma)
[21] = KB3.1 (endocervical adenocarcinoma)

Compound: O=C(O)c1cn(C2CC2)c2cc(N3CCNCC3)c(F)cc2c1=O [Ciprofloxacin, reference compound]
- MIC [1]: 0.52 µg/mL (≈ 1.57 µM)

Compound: O=C(O)c1c(O)c(-c2ccc(O)cc2)cn(O)c1=O [Compound 1, Pretenellin C]
- IC50 (µM) ([2]; listed as pretenellin C (1)): weak or no activity
- IC50 ([2]; Mus musculus, L929, 120 h): > 37 µg/mL
- concentration below which biofilm inhibitory activity is lost [3]: 31.3 µg/mL
- inhibition at 31.25 µg/mL ([3]; Staphylococcus aureus, DSM1104, S. aureus (DSM 1104), 31.25 µg/ml, read-out: Biofilm inhibition (% ± SD)): 46 ± 9%
- inhibition at 62.5 µg/mL ([3]; Staphylococcus aureus, DSM1104, S. aureus (DSM 1104), 62.5 µg/ml, read-out: Biofilm inhibition (% ± SD)): 63 ± 16%
- inhibition at 125 µg/mL ([3]; Staphylococcus aureus, DSM1104, S. aureus (DSM 1104), 125 µg/ml, read-out: Biofilm inhibition (% ± SD)): 74 ± 5%
- MIC ([4]; DSM1116, read-out: MIC): > 67 µg/mL
- MIC ([5]; DSM2656, read-out: MIC): > 67 µg/mL
- MIC ([6]; DSM346, read-out: MIC): > 67 µg/mL
- MIC ([7]; read-out: MIC): > 67 µg/mL
- MIC ([8]; Mycobacterium smegmatis, read-out: MIC): > 67 µg/mL
- MIC ([9]; DSM10, read-out: MIC): > 67 µg/mL
- MIC ([10]; DSM1665, read-out: MIC): > 67 µg/mL
- IC50 ([11]; Homo sapiens, KB 3-1, 120 h, KB3.1 (ovary)): > 37 µg/mL
- IC50 (µM) ([11]; KB3.1 (endocervical adenocarcinoma), listed as pretenellin C (1)): weak or no activity

Compound: CCC(C)/C=C(C)/C=C/C(=O)c1c(O)c(-c2ccc(O)cc2)c[nH]c1=O (stereo not drawn) [Compound 3, Pretenellin B]
- IC50 (µM) [2]: weak or no activity
- IC50 ([2]; Mus musculus, L929, 120 h): 48.2 µM
- inhibitory activity on S. aureus biofilm formation (in words) ([3]; 125–7.8 µg/mL): promising activities in a dose-dependent manner
- Biofilm inhibition (% ± SD) ([3]; 7.8 µg/ml, listed as pretenellin B (3)): ca. 30%
- inhibition at 7.8 µg/mL ([3]; Staphylococcus aureus, DSM1104, read-out: Biofilm inhibition (% ± SD), S. aureus (DSM 1104), 7.8 µg/ml): 37 ± 7%
- inhibition at 15.62 µg/mL ([3]; Staphylococcus aureus, DSM1104, read-out: Biofilm inhibition (% ± SD), S. aureus (DSM 1104), 15.62 µg/ml): 52 ± 6%
- inhibition at 31.25 µg/mL ([3]; Staphylococcus aureus, DSM1104, read-out: Biofilm inhibition (% ± SD), S. aureus (DSM 1104), 31.25 µg/ml): 79 ± 8%
- inhibition at 62.5 µg/mL [3, 18]: 83 ± 6%
- inhibition at 125 µg/mL [3, 19]: 83 ± 6%
- MIC ([4]; DSM1116): > 67 µg/mL
- MIC ([12]; DSM30191): > 67 µg/mL
- MIC ([5]; DSM2656): > 67 µg/mL
- MIC ([6]; DSM346): 66.6 µg/mL (≈ 188 µM)
- MIC [7]: > 67 µg/mL
- MIC [8]: > 67 µg/mL
- MIC ([9]; DSM10): 66.6 µg/mL (≈ 188 µM)
- MIC ([10]; DSM1665): > 67 µg/mL
- IC50 [11, 20]: 20.2 µM
- IC50 (µM) [11, 21]: weak or no activity

Compound: CCC(/C=C(C)/C=C/C(=O)c1c(O)c(-c2ccc(O)cc2)c[nH]c1=O)CO (stereo not drawn) [Compound 6, Pyridovericin]
- IC50 [2]: 5.7 µM
- IC50 ([2]; Mus musculus, L929, 120 h): 4.9 to 6.8 µM
- concentration below which biofilm inhibitory activity is lost [3]: 62.5 µg/mL
- inhibition at 62.5 µg/mL [3, 18]: 48 ± 5%
- inhibition at 125 µg/mL [3, 19]: 64 ± 14%
- IC50 ([13]; 120 h, A549 (lung), 5 days of incubation, read-out: IC50): 24100 nM
- MIC ([4]; DSM1116): > 67 µg/mL
- MIC ([5]; DSM2656): > 67 µg/mL
- MIC ([6]; DSM346): 66.6 µg/mL (≈ 180 µM)
- MIC [7]: > 67 µg/mL
- MIC [8]: > 67 µg/mL
- MIC ([9]; DSM10): 66.6 µg/mL (≈ 180 µM)
- MIC ([10]; DSM1665): > 67 µg/mL
- IC50 [11, 20]: 4.9 to 6.8 µM
- IC50 [11, 21]: 4.9 µM
- IC50 ([14]; MCF-7 (breast), 5 days of incubation, read-out: IC50): 7300 nM

Compound: C/C(=C\c1csc(C)n1)[C@@H]1C[C@@H]2O[C@]2(C)CCC[C@H](C)[C@H](O)[C@@H](C)C(=O)C(C)(C)[C@@H](O)CC(=O)O1 [Epothilone B, reference compound]
- IC50 ([13]; A549, 120 h, read-out: IC50, Positive Control Epothilone B (nM)): 0.05 nM
- IC50 ([14]; read-out: IC50, Positive Control Epothilone B (nM)): 0.07 nM

Compound: CNC(C)C1CCC(N)C(OC2C(N)CC(N)C(OC3OCC(C)(O)C(NC)C3O)C2O)O1 (stereo not drawn) [Gentamycin, reference compound]
- MIC ([4]; DSM1116, read-out: MIC): 0.42 µg/mL (≈ 0.879 µM)
- MIC ([12]; DSM30191, read-out: MIC): 1.7 µg/mL (≈ 3.56 µM)
- MIC ([6]; DSM346, read-out: MIC): 0.21 µg/mL (≈ 0.44 µM)
- MIC ([7]; read-out: MIC): 0.21 µg/mL (≈ 0.44 µM)

Compound: NC[C@H]1O[C@H](O[C@H]2[C@H](O)[C@@H](O[C@H]3O[C@H](CO)[C@@H](O)[C@H](N)[C@H]3O)[C@H](N)C[C@@H]2N)[C@H](O)[C@@H](O)[C@@H]1O [Kanymycin, reference compound]
- MIC (µg/mL) ([8]; Mycobacterium smegmatis): 1.70 ^K µg/mL

Compound: CC(C)=CCC/C(C)=C/CC/C(C)=C/CC/C(C)=C/CO[C@@H](C(=O)O)[C@H](CC(=O)O)C(=O)O [Microporenic acid A, reference compound]
- Biofilm inhibition (% ± SD) ([3]; 7.8 µg/ml): 41 ± 9%
- Biofilm inhibition (% ± SD) ([3]; 15.62 µg/ml): 70 ± 13%
- Biofilm inhibition (% ± SD) ([3]; 31.25 µg/ml): 85 ± 1%
- Biofilm inhibition (% ± SD) ([3]; 62.5 µg/ml): 84 ± 1%
- Biofilm inhibition (% ± SD) ([3]; 125 µg/ml): 86 ± 0%

Compound: C[C@@H]1[C@H](O)[C@@H](C)/C=C/C=C/CC/C=C/C=C/C=C/C=C/C(O[C@H]2O[C@H](C)[C@@H](O)[C@H](N)[C@@H]2O)CC2O[C@](O)(CC(O)C(O)CCC(O)CC(O)CC(O)CC(=O)O[C@H]1C)CC(O)C2C(=O)O (stereo partly drawn) [Nystatin, reference compound]
- MIC (µg/mL) [5]: 8.30 ^N µg/mL
- MIC (µg/mL) [15]: 16.6 ^N µg/mL
- MIC (µg/mL) [16]: 4.20 ^N µg/mL
- MIC (µg/mL) [10]: 8.3 ^N µg/mL
- MIC (µg/mL) [17]: 4.20 ^N µg/mL

Compound: CN(C)[C@@H]1C(O)=C(C(N)=O)C(=O)[C@@]2(O)C(O)=C3C(=O)c4c(O)cccc4[C@@](C)(O)[C@H]3[C@H](O)[C@@H]12 [Oxytetracycline, reference compound]
- MIC ([9]; DSM10, read-out: MIC): 16.6 µg/mL (≈ 36.1 µM)
